Columns and labels:
[1] = target: T1, mineralocorticoid receptor (MR) (Homo sapiens, UniProt P08235); experiment: Assay for agonist activity on mineralocorticoid receptor (luciferase reporter, HEK293 cells transfected with pBIND-MR plasmid); format: cell-based; settings: for target selectivity: MR/GR and PR/GR, same experimental conditions; for Target selectivity MR/GR: ratio of EC50 values
T1 sequence (P08235 726-984): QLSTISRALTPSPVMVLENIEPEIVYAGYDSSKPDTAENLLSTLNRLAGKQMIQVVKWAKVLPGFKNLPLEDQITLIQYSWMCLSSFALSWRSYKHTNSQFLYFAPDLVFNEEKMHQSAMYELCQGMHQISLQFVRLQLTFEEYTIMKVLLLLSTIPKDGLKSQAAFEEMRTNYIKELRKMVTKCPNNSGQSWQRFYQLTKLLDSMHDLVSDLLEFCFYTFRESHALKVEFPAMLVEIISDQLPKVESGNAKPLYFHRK
How it was run: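 HEK293 cells transiently transfected with pBIND-MR or pBIND-PR, seeded in phenol red-free DMEM with 5% charcoal-stripped serum. Compounds tested as 12-point 4-fold dilutions from 50 µM in duplicate, 0.1% DMSO blank. Luciferase luminescence read, EC50 by nonlinear fit.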

[2] = Pharmacokinetic (PK) experiment in rats; format: in vivo, male SD rats; settings: same experimental conditions
Description: Pharmacological Example 11. Pharmacokinetic (PK) Experiment in Rats
The solution was prepared before administration.
Animals: 6 male SD rats, SPF grade (Beijing Vital River Laboratory Animal Technology Co., Ltd.).
Animal grouping: The animals were weighed prior to administration, and the dosage was calculated based on body weight. The animals in the oral administration group were fasted overnight (10-14 hours) before administration, and food was reintroduced 4 hours post-administration. Table 23. Animal grouping and drug administration dosages for pharmacokinetic (PK) experiment in rats
Blood collection time points: Blood was collected from the jugular vein at 2 min, 5 min, 15 min, 30 min, 1 h, 2 h, 4 h, 8 h, and 24 h after administration. Approximately 0.25 mL of blood was collected for each sample, anticoagulated with heparin sodium, and then placed on ice immediately.
Plasma sample processing: Blood samples were placed on ice after collection and centrifuged to separate plasma within 1 hour (centrifugation conditions: 6000 rpm, 3 minutes, 2-8 °C ). Plasma samples were stored in a -80°C freezer before analysis.
Data processing: Pharmacokinetic parameters were calculated using Phoenix WinNonlin 8.2.0 based on the plasma drug concentration data at different time points.

uveitis model rats = experiment: Anti-uveitis pharmacodynamic experiment (LPS model): ocular pathological score; format: in vivo, male SD rats; settings: for ocular abnormalities / ocular pathological score: compared with the model group
Description: Fifty male SD rats underwent a one-week adaptive feeding period. […] Groups 2 to 5 were used to establish rat uveitis models by single subcutaneous injection of 1 mg/kg LPS (Salmonella; Sigma; Lot No. 0000164114) into the plantar tissue of the hindpaw. Salmonella endotoxin was dissolved in normal saline to prepare an injection solution at a concentration of 2 mg/mL, which was injected subcutaneously at 1 mg/kg into the plantar tissue of one paw of the rats. Group 1 was injected with an equal volume of normal saline.
At the end of the experiment, photos of the rats' eyes were taken using a slit-lamp microscope, and the differences in ocular lesions of rats among groups were compared and analyzed.

[3] = test system: inflammatory cytokines (TNF-α); experiment: Anti-uveitis pharmacodynamic experiment (LPS model): inflammatory cytokines in aqueous humor (ELISA); format: in vivo, male SD rats; settings: values not given
Description: Pharmacological Example 5. Pharmacodynamic Experiment on Anti-Uveitis
Test samples: Compounds 23 and 26 were prepared as 5 mg/5 mL ophthalmic suspensions with reference to the formulation of Fluorometholone Eye Drops, and stored at room temperature protected from light until use.
Positive control drug: Fluorometholone Eye Drops (specification: 5 mL/5 mg; Santen Pharmaceutical (CHINA) Co., Ltd.; Lot No. : J20180068) was used as the positive control drug and stored at room temperature protected from light until use.
Fifty male SD rats underwent a one-week adaptive feeding period. The animals were randomly divided into 5 groups: Group 1 served as the blank control group, and Groups 2 to 5 were the model group, fluorometholone group, compound 23 group, and compound 26 group, respectively. Groups 2 to 5 were used to establish rat uveitis models by single subcutaneous injection of 1 mg/kg LPS (Salmonella; Sigma; Lot No. 0000164114) into the plantar tissue of the hindpaw. Salmonella endotoxin was dissolved in normal saline to prepare an injection solution at a concentration of 2 mg/mL, which was injected subcutaneously at 1 mg/kg into the plantar tissue of one paw of the rats. Group 1 was injected with an equal volume of normal saline.
After modeling, 40 µL of normal saline was administered to the eyes (bilateral) of the rats in the blank control group and model group, and 40 µL of the corresponding drugs were administered to the eyes (bilateral) of the […] in the compound 23 group, compound 26 group, and positive drug fluorometholone group, 3 times a day for 2 days. Table 8. Animal grouping and drug administration dosages
Thirty hours after modeling, aqueous humor was collected from both eyes of rats, and partial eyeball tissues of rats were collected. The level of the inflammatory cytokines (TNF-α) was detected using a rat ELISA assay kit.
Statistical analysis was performed using SPSS software. Measurement data were expressed as mean ± standard deviation. One-way ANOVA was used for intergroup comparisons. For data with homogeneous variance, LSD test was used; for data with heterogeneous variance, Dunnett-t test was used. A value of P < 0.05 was considered statistically significant.

IL-17 = experiment: Psoriasis experiment (imiquimod model): inflammatory cytokine in serum (ELISA); format: in vivo, mice; settings: compared with the model group

Row | Structure (SMILES) | target selectivity [1] | pharmacokinetic properties (plasma clearance rate, systemic exposure) [2] | Ocular pathological score (uveitis model rats; 1 mg/mL, 40 µL/eye, 3 times a day for 2 days) | ocular abnormalities / ocular pathological score (uveitis model rats) | inflammatory cytokines in aqueous humor [3] | level of IL-17 / inflammatory cytokines in psoriasis model mice (IL-17) | EC50 [1] [µM] | Target selectivity MR/GR [1]
1 | C[C@]12C=CC(=O)C=C1CC[C@H]1[C@@H]3C[C@H]4OC(c5ccc(CSC6COC(=O)C6)cc5)O[C@@]4(C(=O)CO)[C@@]3(C)C[C@H](O)[C@@]12Cl (stereo partly drawn) [Compound 26, (6aS,6bR,7S,8aS,8bS,11aR,12aS,12bS)-6b-Chloro-7-hydroxy-8b-(2-hydroxyacetyl)-6a,8a-dimethyl-10-(4-(((5-oxotetrahydrofuran-3-yl)thio)methyl)phenyl)-1,2,6a,6b,7,8,8a,8b,11a,12,12a,12b-do decahydro-4H-naphtho[2',1':4,5]indeno[1,2-d][1,3]dioxol-4-one] | target selectivity comparable to that of compound 23 | pharmacokinetic properties similar to those of compound 8 | 7.6 ± 0.5 | significantly improved the ocular abnormalities and reduced the ocular pathological score | suppressed inflammatory cytokines in aqueous humor | significantly inhibited inflammatory cytokines in the skin of psoriasis model mice |  | 
2 | C[C@]12C=CC(=O)C=C1[C@@H](F)C[C@H]1[C@@H]3C[C@H]4OC(c5ccc(CSC6CCOC6=O)nc5)O[C@@]4(C(=O)CO)[C@@]3(C)C[C@H](O)[C@@]12F (stereo partly drawn) [Compound 46, (25,6aS,6bR,78,8a8,8bS,11aR,12a8,12b8S)-2,6b-Difluoro-7-hydroxy-8b-(2-hydroxyacetyl)-6a,8a-dimethyl-10-(6-(((2-oxotetrahydrofuran-3-yl)thio)methyl)pyridin-3-yl)-1,2,6a,6b,7,8,8a,8b,11a,12, 12a,12b-dodecahydro-4H-naphtho[2',1':4,5]indeno[1,2-d][1,3]dioxol-4-one] | target selectivity comparable to that of compound 23 | pharmacokinetic properties similar to those of compound 8 |  | significantly improved ocular abnormalities | suppressed inflammatory cytokines in aqueous humor | significantly inhibited inflammatory cytokines in the skin of psoriasis model mice |  | 
3 | C[C@]12C=CC(=O)C=C1[C@@H](F)C[C@H]1[C@@H]3C[C@H]4OC(c5ccc(CSC6CCOC6=O)cc5)O[C@@]4(C(=O)SCF)[C@@]3(C)C[C@H](O)[C@@]12F (stereo partly drawn) [Compound 34, S-(Fluoromethyl) (2S,6aS,6bR,7S,8aS,8bS,11aR,12aS,12bS)-2,6b-difluoro-7-hydroxy-6a,8a-dimethyl-4-oxo-10-(4-( ((2-oxotetrahydrofuran-3-yl)thio)methyl)phenyl)-1,2,4,6a,6b,7,8,8a,11a,12,12a,12b-dodecahydro-8bH-naphtho[2',1':4,5]indeno[1,2-d][1,3]dioxole-8b-carbothioate] |  | pharmacokinetic properties similar to those of compound 8 |  | significantly improved ocular abnormalities | suppressed inflammatory cytokines in aqueous humor | significantly inhibited inflammatory cytokines in the skin of psoriasis model mice | > 50 | > 5.0×10^5
4 | C[C@]12C=CC(=O)C=C1[C@@H](F)C[C@H]1[C@@H]3C[C@H]4OC(c5ccc(CSC6CCOC6=O)cc5)O[C@@]4(C(=O)OCC#N)[C@@]3(C)C[C@H](O)[C@@]12F (stereo partly drawn) [Compound 37, Cyanomethyl (2S,6aS,6bR,7S,8aS,8bS,11aR,12aS,12bS)-2,6b-difluoro-7-hydroxy-6a,8a-dimethyl-4-oxo-10-(4-( ((2-oxotetrahydrofuran-3-yl)thio)methyl)phenyl)-1,2,4,6a,6b,7,8,8a,11a,12,12a,12b-dodecahydro-8bH-naphtho[2',1':4,5]indeno[1,2-d][1,3]dioxole-8b-carboxylate] | target selectivity comparable to that of compound 23 | pharmacokinetic properties similar to those of compound 8 |  | significantly improved ocular abnormalities | suppressed inflammatory cytokines in aqueous humor | significantly inhibited inflammatory cytokines in the skin of psoriasis model mice |  | 
5 | C[C@]12C=CC(=O)C=C1CC[C@H]1[C@@H]3C[C@H]4OC(c5ccc(CSC6CCOC6=O)nc5)O[C@@]4(C(=O)CO)[C@@]3(C)C[C@H](O)[C@@]12F (stereo partly drawn) [Compound 47, (6aS,6bR,7S,8aS,8bS,11aR,12aS,12bS)-6b-Fluoro-7-hydroxy-8b-(2-hydroxyacetyl)-6a,8a-dimethyl-10-(6-(((2-oxotetrahydrofuran-3-yl)thio)methyl)pyridin-3-yl)-1,2,6a,6b,7,8,8a,8b,11a,12,12a,12 b-dodecahydro-4H-naphtho[2',1':4,5]indeno[1,2-d][1,3]dioxol-4-one] |  | pharmacokinetic properties similar to those of compound 8 |  | significantly improved ocular abnormalities | suppressed inflammatory cytokines in aqueous humor | significantly inhibited inflammatory cytokines in the skin of psoriasis model mice | > 50 | > 1.5×10^5
6 | C[C@]12C=CC(=O)C=C1CC[C@H]1[C@@H]3C[C@H]4OC(c5ccc(CSC6COC(=O)C6)cc5Cl)O[C@@]4(C(=O)CO)[C@@]3(C)C[C@H](O)[C@@]12F (stereo partly drawn) [Compound 20, (6aS,6bR,7S,8aS,8bS,11aR,12aS,12bS)-10-(2-Chloro-4-(((5-oxotetrahydrofuran-3-yl)thio)methyl)phenyl)-6b-fluoro-7-hydroxy-8b-(2-hydroxyacetyl)-6a,8a-dimethyl-1,2,6a,6b,7,8,8a,8b,11a,12,12a, 12b-dodecahydro-4H-naphtho[2',1':4,5]indeno[1,2-d][1,3]dioxol-4-one] | target selectivity comparable to that of compound 23 | pharmacokinetic properties similar to those of compound 8 |  | significantly improved ocular abnormalities | suppressed inflammatory cytokines in aqueous humor | significantly inhibited inflammatory cytokines in the skin of psoriasis model mice |  | 
7 | C[C@]12C=CC(=O)C=C1CC[C@H]1[C@@H]3C[C@H]4OC(c5ccc(COC6CCOC6=O)cc5)O[C@@]4(C(=O)CO)[C@@]3(C)C[C@H](O)[C@@]12Cl (stereo partly drawn) [Compound 22, (6aS,6bR,7S,8aS,8bS,11aR,12aS,12bS)-6b-Chloro-7-hydroxy-8b-(2-hydroxyacetyl)-6a,8a-dimethyl-10-(4-(((2-oxotetrahydrofuran-3-yl)oxy)methyl)phenyl)-1,2,6a,6b,7,8,8a,8b,11a,12,12a,12b-do decahydro-4H-naphtho[2',1':4,5]indeno[1,2-d][1,3]dioxol-4-one] |  | pharmacokinetic properties similar to those of compound 8 |  | significantly improved ocular abnormalities | suppressed inflammatory cytokines in aqueous humor | significantly inhibited inflammatory cytokines in the skin of psoriasis model mice | > 50 | > 9.1×10^4
